# Assay results: patent publication US20110212083A1, “ROLE OF SOLUBLE UPAR IN THE PATHOGENESIS OF PROTEINURIC KIDNEY DISEASE” (University of Miami Office of Technology Transfer, priority 2008, published 2011)
# “Also recorded” adds a separate entry of the source.
# What was measured:
# [1] = test system: αvβ3 integrin; conditions: in vivo; cited from earlier work
# [2] = test system: 57BL/6 and Plaur−/− mice; assay: right kidney cross-transplantation with LPS treatment (TEM and uPAR immunostaining); type: in vivo, mouse; conditions: for foot process effacement (TEM): LPS 10 mg/kg i.p., 24 h
# Description: Right kidney cross-transplantation: Six 57BL/6 female mice and 6 Plaur^−/− female mice in the same age and body weight ranges (7-8 weeks, 15-18 g) were randomly recruited into this study. The right kidney from Plaur^−/− mice were transplanted into 57BL/6 mice at the right side and vice versa. Kidney transplantation was performed as previously described (Coffman, T. et al, J. Immunol. 151, 425-435 (1993); Han, W. R., Murray-Segal, L. J. and Mottram, P. L. Microsurgery. 19, 272-274 (1999)). After recovery from surgery, mice were randomly treated with LPS at 10 mg/kg body weight, i.p. or same amount of PBS for control. 24 h after LPS injection, mice were sacrificed, and kidney was taken out for further analysis.
# Transmission electron microscopy (TEM): TEM was performed according to the standard protocols (Sever, S. et al. J. Clin. Invest. 117, 2095-2104 (2007)).
# To further confirm the role of suPAR in proteinuria development and kidney disease, cross-kidney transplantation was performed and the effect of endogenous soluble form of uPAR was examined. The right kidney was excised from normal 57BL/6, and transplanted into Plaur^−/− mice on the right side and vice versa (FIG. 3A). Mice were randomly chosen to receive lipopolysaccharide (LPS) to induce proteinuria or PBS for control after recovery from surgery. […] For the PBS treated 57BL/6 mice however, foot process effacement was not remarkable in either transplanted Plaur^−/− kidney or native 57BL/6 kidney (FIG. 1E). […] In contrast, foot process effacement was not remarkable in either native Plaur^−/− kidney or in the transplanted 57BL/6 kidney of PBS controlled mice (FIG. 1F). […] In order to determine whether suPAR is responsible for the phenomena, the sections were immunostained from both native and transplanted kidney with uPAR antibody.
compound,measurement,setting,value
CC(C)[C@@H]1NC(=O)[C@@H](Cc2ccccc2)NC(=O)[C@H](CC(=O)O)NC(=O)CNC(=O)[C@H](CCCN=C(N)N)NC1=O [cycloRGDfV],proteinuria caused by uPAR-β3-integrin signaling,[1],prevented and reduced; also recorded: blocked
lipopolysaccharide [LPS],foot process effacement (TEM),"[2]; 57BL/6 mice, native 57BL/6 kidney",significant foot process effacement
same,foot process effacement (TEM),"[2]; 57BL/6 mice, transplanted Plaur−/− kidney",massive foot process effacement
same,podocyte uPAR expression (immunostaining),"[2]; LPS treated 57BL/6 mice, native 57BL/6 kidney",increased podocyte uPAR expression
same,podocyte uPAR expression or deposit (immunostaining),"[2]; LPS treated 57BL/6 mice, transplanted Plaur−/− kidney",clear uPAR expression or deposit
same,uPAR in podocytes (immunostaining),"[2]; LPS treated Plaur−/− mice, native Plaur−/− kidney",not any uPAR
same,uPAR expression (immunostaining),"[2]; LPS treated Plaur−/− mice, transplanted 57BL/6 kidney",increased uPAR expression
same,foot process effacement (TEM),"[2]; Plaur−/− mice, native Plaur−/− kidney",not
same,foot process effacement (TEM),"[2]; Plaur−/− mice, transplanted 57BL/6 kidney",readily observed
